Test results reported in patent US10391095B2, “DNA-PK inhibitors” (Vertex Pharmaceuticals Incorporated, priority 2012, dated 2019).

These molecules were tested against DNA-PK (Homo sapiens, UniProt P78527) (assay: DNA-PK inhibition assay (radiometric, 33P-ATP)). Details: 100 μM ATP, competitive tight-binding fit.
Format: biochemical
Method in brief: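 Approx. 6 nM DNA-PK with 10 µg/mL sheared dsDNA, 0.8 mg/mL peptide substrate and 100 µM 33P-ATP in HEPES pH 7.5, 10 mM MgCl2; 45 min, phosphoric acid quench. Phosphopeptide captured on filter plates and counted by scintillation; Ki from a competitive tight-binding model fit.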

Row | SMILES | Ki [nM]
1 | CNC(=O)c1ccnc2c([C@H](C)CNc3cc(-c4cnc(C(C)(C)OC)nc4)ncn3)cccc12 [Compound 928] | < 30
2 | COCCn1ncc2cc(-c3cc(NCC(C)c4sccc4OC)ncn3)cnc21 (centres unmarked) [Compound 260] | < 30
3 | COc1ccccc1CCNc1cc(-c2cnc3c(cnn3C3CCN(C)CC3)c2)ncn1 [Compound 82] | < 30
4 | COc1ccsc1C(C)CNc1cc(-c2cnc3c(cnn3CCO)c2)ncn1 (centres unmarked) [Compound 233] | < 30
5 | Cc1ccc(-c2cc(NCC(C)c3cncc4nccnc34)ncn2)cn1 (centres unmarked) [Compound 407] | < 30
6 | Cc1ncc(-c2cc(NC[C@@H](C)c3cccc4c(C(F)F)ccnc34)ncn2)cn1 [Compound 669] | < 30
7 | CCNc1ccc(-c2cc(NC[C@@H](C)c3cc(C)nc4c3OCC4)ncn2)cn1 [Compound 575] | < 30
8 | CNC(=O)c1ccc([C@H](C)CNc2cc(-c3ccc(NC(CO)CO)nc3)ncn2)c(OC)c1 [Compound 353] | < 30
9 | CNC(=O)c1ccc([C@H](C)CNc2cc(-c3ccc(NC4CC4)nc3)ncn2)c(OC)c1 [Compound 388] | < 30
10 | CNC(=O)c1ccnc2c([C@H](C)CNc3cc(-c4cnc(N)c(CO)c4)ncn3)cccc12 [Compound 970] | < 30
11 | CNC(=O)c1ccnc2c([C@H](C)CNc3cc(-c4ccc(NCCn5cccc5)nc4)ncn3)cccc12 [Compound 702] | < 30
12 | CNC(=O)c1ccc([C@H](C)CNc2cc(-c3cnc(C)nc3)ncn2)c(OC)c1 [Compound 308] | < 30
13 | C[C@H](CNc1cc(-c2ccc3ccncc3c2)ncn1)c1ccnc2c1OCCO2 [Compound 541] | < 30
14 | CNC(=O)c1c(N2CCOCC2)cnc2c([C@H](C)CNc3cc(-c4ccc(C)nc4)ncn3)cccc12 [Compound 767] | < 30
15 | CCOc1ccccc1[C@H](C)CNc1cc(-c2ccc(N3CCN(C)CC3)nc2)ncn1 [Compound 152] | < 30
16 | COc1cc(C(N)=O)ccc1C(C)CNc1cc(-c2ccc(N3CCN(C(C)=O)CC3)nc2)ncn1 (centres unmarked) [Compound 131] | < 30
17 | CNC(=O)c1ccnc2c([C@H](C)CNc3cc(-c4ccc(NCCN5CCCC5=O)nc4)ncn3)cccc12 [Compound 703] | < 30
18 | CNC(=O)c1ccnc2c([C@H](C)CNc3cc(-c4ccc(N5CCC(C(C)(C)O)CC5)nc4)ncn3)cccc12 [Compound 734] | < 30
19 | COc1ccccc1[C@H](C)CNc1cc(-c2ccc(NC(CO)CO)nc2)ncn1 [Compound 199] | < 30
20 | COc1cc(C(N)=O)ccc1C(C)CNc1cc(-c2ccc(C)nc2)ncn1 (centres unmarked) [Compound 122] | < 30
21 | COc1ccccc1[C@H](C)CNc1cc(-c2ccc(N3CCN(C)CC3)nc2)ncn1 [Compound 32, (S)—N-(2-(2-Methoxyphenyl)propyl)-6-(6-(4-methylpiperazin-1-yl)pyridin-3-yl)pyrimidin-4-amine] | < 30
22 | CNCCCNc1ccc(-c2cc(NC[C@@H](C)c3ccc(C(=O)NC)cc3OC)ncn2)cn1 [Compound 356] | < 30
23 | CC(CNc1cc(-c2cnc3c(cnn3C3CCN(C)CC3)c2)ncn1)c1ccccc1O (centres unmarked) [Compound 151] | < 30
24 | Cc1ccc(-c2cc(NCC(C)c3cccc4scnc34)ncn2)cn1 (centres unmarked) [Compound 333] | < 30
25 | COc1sccc1C(C)CNc1cc(-c2ccc(C)nc2)ncn1 (centres unmarked) [Compound 257] | < 30
26 | C[C@H](CNc1cc(-c2cnc3c(cnn3C3COC3)c2)ncn1)c1ccnc2c1OCCO2 [Compound 493] | < 30

Row | SMILES | Ki [nM]
27 | COc1ccccc1[C@H](C)CNc1cc(-c2ccc(NCC3(O)CC3)nc2)ncn1 [Compound 204] | < 30
28 | COc1ccccc1[C@H](C)CNc1cc(-c2ccc(C)nc2)ncn1 [Compound 55] | < 30
29 | CNC(=O)c1c(F)cnc2c([C@H](C)CNc3cc(-c4cnc(C)s4)ncn3)cccc12 [Compound 828] | < 30
30 | CNC(=O)c1ccc(C(C)CNc2cc(-c3ccc(OC)nc3)ncn2)c(OC)c1 (centres unmarked) [Compound 320] | < 30
31 | CNC(=O)c1ccnc2c([C@H](C)CNc3cc(-c4ccc(N(C)C5CCN(C)CC5)nc4)ncn3)cccc12 [Compound 634] | < 30
32 | CNC(=O)c1ccnc2c([C@H](C)CNc3cc(-c4cnc(OC)c(COC)c4)ncn3)cccc12 [Compound 944] | < 30
33 | CNC(=O)c1ccc(C(C)CNc2cc(-c3ccc(OCC4CC4)nc3)ncn2)c(OC)c1 (centres unmarked) [Compound 326] | < 30
34 | CNC(=O)c1ccnc2c([C@H](C)CNc3cc(-c4ccc(NS(C)(=O)=O)cc4)ncn3)cccc12 [Compound 680] | < 30
35 | CNc1ncc(-c2cc(NC[C@@H](C)c3cc(C)nc4c3OCC4)ncn2)cn1 [Compound 574] | < 30
36 | CNC(=O)c1ccc([C@H](C)CNc2cc(-c3ccc4c(c3)ncn4C)ncn2)c(OC)c1 [Compound 263] | < 30
37 | CNC(=O)c1ccnc2c([C@H](C)CNc3cc(-c4cnc5c(c4)CCCO5)ncn3)cccc12 [Compound 793] | < 30
38 | Cc1ccc(-c2cc(NCC(C)c3cncc4cccnc34)ncn2)cn1 (centres unmarked) [Compound 414] | < 30
39 | CNC(=O)c1ccnc2c([C@H](C)CNc3cc(-c4ccc(C)cc4F)ncn3)cccc12 [Compound 805] | < 30
40 | CONC(=O)c1ccc(C(C)CNc2cc(-c3ccc(C)nc3)ncn2)c(OC)c1 (centres unmarked) [Compound 157] | < 30
41 | CNC(=O)c1ccnc2c([C@H](C)CNc3cc(-c4ccc(C)cc4)ncn3)cccc12 [Compound 671] | < 30
42 | CNC(=O)c1c(N(C)C)cnc2c([C@H](C)CNc3cc(-c4ccc(C)nc4)ncn3)cccc12 [Compound 765] | < 30
43 | CNC(=O)c1c(F)cnc2c([C@H](C)CNc3cc(-c4cnc5c(c4)OCCO5)ncn3)cccc12 [Compound 937] | < 30
44 | CC(=O)Nc1cnc2c([C@H](C)CNc3cc(-c4ccc(C)nc4)ncn3)cccc2c1 [Compound 742] | < 30
45 | CNC(=O)c1ccnc2c([C@H](C)CNc3cc(-c4ccnc(C)c4)ncn3)cccc12 [Compound 771] | < 30
46 | CNC(=O)c1ccnc2c([C@H](C)CNc3cc(-c4ccc(N(C)CCOCC5CC5)nc4)ncn3)cccc12 [Compound 714] | < 30
47 | CNC(=O)c1ccc(C(C)CNc2cc(-c3cc4cnn(C5COC5)c4cc3C)ncn2)c(OC)c1 (centres unmarked) [Compound 283] | < 30
48 | COCCn1ncc2cc(-c3cc(NCC(C)c4ccc(C(=O)NCC(F)(F)F)cc4OC)ncn3)cnc21 (centres unmarked) [Compound 220] | < 30
49 | Cc1ccc(-c2cc(NC[C@@H](C)c3ccnc4c3OCCC4)ncn2)cn1 [Compound 535] | < 30
50 | COc1ccccc1[C@H](C)CNc1cc(-c2cnc3c(cnn3C)c2)ncn1 [Compound 172] | < 30
51 | CNC(=O)c1ccnc2c([C@H](C)CNc3cc(-c4cnc(CO)c(OC)c4)ncn3)ccc(F)c12 [Compound 916] | < 30
52 | CNC(=O)c1ccnc2c([C@H](C)CNc3cc(-c4ccc(N5CCC(C)(O)C5)nc4)ncn3)cccc12 (some centres unmarked) [Compound 732] | < 30

Row | SMILES | Ki [nM]
53 | COc1ccccc1[C@H](C)CNc1cc(-c2cnc3c(cnn3C3COC3)c2)ncn1 [Compound 179] | < 30
54 | CCOc1ccc(-c2cc(NC[C@@H](C)c3cccc4c(C(=O)NC)ccnc34)ncn2)cn1 [Compound 933] | < 30
55 | Cc1ncc(-c2cc(NC[C@@H](C)c3cccc4cc(F)cnc34)ncn2)cn1 [Compound 667] | < 30
56 | CNC(=O)c1ccnc2c([C@H](C)CNc3cc(-c4cnc(NC)c(C)c4)ncn3)cccc12 [Compound 961] | < 30
57 | COc1ccccc1[C@H](C)CNc1cc(-c2ccc(NC3CCN(C4CC4)CC3)nc2)ncn1 [Compound 242] | < 30
58 | CNC(=O)c1ccnc2c([C@H](C)CNc3cc(-c4ccc(NCc5cocn5)nc4)ncn3)cccc12 [Compound 712] | < 30
59 | CNC(=O)c1ccnc2c([C@H](C)CNc3cc(-c4cnc(C5CCOCC5)nc4)ncn3)cccc12 [Compound 831] | < 30
60 | CC(=O)c1ccc(-c2cc(NC[C@@H](C)c3ccnc4c3OCCO4)ncn2)cc1 [Compound 456] | < 30
61 | CNC(=O)c1ccnc2c([C@H](C)CNc3cc(-c4cnc(OC)c(CO)c4)ncn3)cccc12 [Compound 882] | < 30
62 | CCOc1ccccc1[C@H](C)CNc1cc(-c2ccc(C)nc2)ncn1 [Compound 110] | < 30
63 | COc1cc(CO)ccc1C(C)CNc1cc(-c2ccc(N3CCN(C(C)=O)CC3)nc2)ncn1 (centres unmarked) [Compound 115] | < 30
64 | COc1ccccc1CCNc1cc(-c2cnc3c(cnn3CCC(C)C)c2)ncn1 [Compound 45] | < 30
65 | CNC(=O)c1c(F)cnc2c([C@H](C)CNc3cc(-c4cncc(C)c4)ncn3)cccc12 [Compound 772] | < 30
66 | Cc1ccc(-c2cc(NCC(C)c3ccc(F)cc3OC3CC3)ncn2)cn1 (centres unmarked) [Compound 270] | < 30
67 | CNc1ncc(-c2cc(NC[C@@H](C)c3ccnc4c3OCC4)ncn2)cn1 [Compound 430] | < 30
68 | COc1ccsc1C(C)CNc1cc(-c2cnc3c(cnn3CC3CC3)c2)ncn1 (centres unmarked) [Compound 232] | < 30
69 | CNC(=O)c1c(F)cnc2c([C@H](C)CNc3cc(-c4cnc(OC)c(N)c4)ncn3)cccc12 [Compound 902] | < 30
70 | CNC(=O)c1ccc(C(C)CNc2cc(-c3cnc4c(cnn4C4CCN(C)CC4)c3)ncn2)c(OC)c1 (centres unmarked) [Compound 155] | < 30
71 | COCCn1ncc2cc(-c3cc(NCC(C)c4ccsc4OC)ncn3)cnc21 (centres unmarked) [Compound 258] | < 30
72 | Cc1ccc(-c2cc(NCC(C)c3cccc4nccnc34)ncn2)cn1 (centres unmarked) [Compound 332] | < 30
73 | CC(=O)N1CCN(c2ccc(-c3cc(NCC(C)c4ccccc4O)ncn3)cn2)CC1 (centres unmarked) [Compound 136] | < 30
74 | CNC(=O)c1ccnc2c([C@H](C)CNc3cc(-c4ccc(O)nc4)ncn3)cccc12 [Compound 799] | < 30
75 | C[C@H](CNc1cc(-c2cnc(F)c(N)c2)ncn1)c1ccnc2c1OCCO2 [Compound 554] | < 30
76 | CNC(=O)c1ccnc2c([C@H](C)CNc3cc(-c4cc(F)c(OC)c(F)c4)ncn3)cccc12 [Compound 824] | < 30
77 | CNC(=O)c1ccnc2c([C@H](C)CNc3cc(-c4cnc(OC)c(C)c4)ncn3)cccc12 [Compound 945] | < 30
